In brackets after ≈: the same amount, converted by molar mass.

Experimental findings from patent publication US20180312493A1, “Antibiotic Compounds, Pharmaceutical Formulations Thereof And Methods And Uses Therefor” (Simon Fraser University, priority 2015, published 2018) are described below.

The test system of the assay is S. aureus (ATCC29213). Nature of the assay: In vitro susceptibility, broth microdilution (MIC). The format is cell-based. The note with it: Staphylococcus aureus; S. aureus ATCC29213; 18-24 h, 37 C; read-out: Antimicrobial activity (MIC) S. aureus ATCC29213. From the text: Epidemic methicillin resistant S. aureus (MRSA) strain sequenced at the Sanger Centre (MRSA252, NRS71) was obtained from NARSA (Network on Antimicrobial Resistance in S. aureus). Methicillin sensitive S. aureus (ATCC 29213 and 25923), methicillin resistant S. aureus (ATCC BAA-1762), and Salmonella typhimurium (ATCC BAA-185) were obtained from ATCC, The Global Bioresource Center. Acinetobacter baumannii (ATCC 19606 and ATCC 17978), Klebsiella pneumonia (C238), vancomycin resistant Enterococci #2 (2010A) (VRE#2), MRSA (USA400, MW2) and Pseudomonas aeruginosa (PA0-1) were obtained from the laboratory of Dr B. B. Finlay at the University of British Columbia (Vancouver, Canada).
The antimicrobial activities of PK inhibitor candidates were determined using the 96-well microtiter standard 2-fold serial broth microdilution method as described by CLSI (formerly NCCLS) with the various gram-positive and gram-negative bacteria species mentioned above. Bacteria from a single colony were grown, overnight in either BHI Broth (VRE), mueller hinton broth (S. aureus 29213; MRSA USA400, A. baumannii 19606, MRSA BAA-1762) or L-broth (P. aeruginosa, S. typhimurium, K. pneumonia and A. baumannii 17978). […] Culture plates were incubated for 18-24 h at 37° C., and optical density at 600 nm (OD600) was measured using a Benchmark Plus™ microplate spectrophotometer (Bio-Rad™). The absorbance control values for the series containing CAMHB and inhibitor were subtracted as background from the corresponding infected wells. Minimal inhibitory concentration (MIC) was defined as the lowest concentration of test compound leading to complete inhibition of cell growth in relation to compound-free control wells as determined by optical density. Vancomycin, methicillin and ciprofloxicin were used as reference compounds. All assays were run in triplicate or duplicate. Experiments were replicated at least twice to verify reproducibility using the above conditions.
In general terms: Broth dilution looks for growth in wells or tubes with falling amounts of substance.

Consider `O=C(NCCN1CCN(C(=O)COCC(=O)N2CCN(CCNC(=O)c3c(/C=C/c4ccc(Cl)cc4)[nH]c4cc(Br)ccc34)CC2)CC1)c1c(/C=C/c2ccc(Cl)cc2)[nH]c2cc(Br)ccc12` [Compound 56, (E)-N,N′-((4,4′-(2,2′-oxybis(acetyl))bis(piperazine-4,1-diyl))bis(ethane-2,1-diyl))bis(6-bromo-2-((E)-4-chlorostyryl)-1H-indole-3-carboxamide)], for which the minimum inhibitory concentration (MIC) (in general, the lowest concentration that inhibits growth of the organism) is greater than 64 µg/mL.

Consider `COC(=O)[C@@H]1CN(CCNC(=O)c2c(-c3cc4cc(Cl)ccc4[nH]3)[nH]c3cc(Br)ccc23)CCN1` [Compound 227, Methyl (S)-4-(2-(6-bromo-5′-chloro-1H,1′H-[2,2′-biindole]-3-carboxamido)ethyl)piperazine-2-carboxylate], for which the MIC was greater than 64 µg/mL.

For the compound `O=C(Nc1ccc(Cl)cc1)Nc1nc2cc(F)ccc2o1` [Compound 179, 1-(4-chlorophenyl)-3-(5-fluorobenzo[d]oxazol-2-yl)urea], the minimal inhibitory concentration (MIC) is greater than 64 µg/mL.

Take `NC(=O)N1CCN(CCNC(=O)c2c(-c3cc4cc(Cl)ccc4[nH]3)[nH]c3cc(Br)ccc23)CC1` [Compound 132, 6-bromo-N-(2-(4-carbamoylpiperazin-1-yl)ethyl)-5′-chloro-1H,1′H-2,2′-biindole-3-carboxamide]: the MIC was greater than 64 µg/mL.

`O=C(Nc1ccc(Cl)cc1)Nc1nc2ccccc2s1` [Compound 162, 1-(benzo[d]thiazol-2-yl)-3-(4-chlorophenyl)urea]: the MIC is greater than 64 µg/mL.

In the case of `COC(=O)[C@@H]1CN(CCNC(=O)c2c(-c3cc4cc(Cl)ccc4[nH]3)[nH]c3cc(Br)ccc23)CCN1C(=O)OCc1ccccc1` [Compound 226, 1-benzyl 2-methyl (S)-4-(2-(6-bromo-5′-chloro-1H,1′H-[2,2′-biindole]-3-carboxamido)ethyl)piperazine-1,2-dicarboxylate], the MIC was greater than 64 µg/mL.

With `O=C(Nc1nc2cc(Cl)ccc2o1)NC1CCCCC1` [Compound 178, 1-(5-chlorobenzo[d]oxazol-2-yl)-3-cyclohexylurea], the MIC is greater than 64 µg/mL.

For `O=C(Nc1ccc(Cl)cc1)Nc1nc2ccccc2o1` [Compound 164, 1-(benzo[d]oxazol-2-yl)-3-(4-chlorophenyl)urea], the minimal inhibitory concentration (MIC) is greater than 64 µg/mL.

For the compound `O=C(Nc1ccc(Cl)cc1)Nc1nc2cc(Cl)ccc2o1` [Compound 177, 1-(5-chlorobenzo[d]oxazol-2-yl)-3-(4-chlorophenyl)urea], the MIC was greater than 64 µg/mL.

`O=C(Nc1ccc(Cl)cc1)Nc1nc2cc([N+](=O)[O-])ccc2s1` [Compound 167, 1-(4-chlorophenyl)-3-(5-nitrobenzo[d]thiazol-2-yl)urea]: the minimal inhibitory concentration (MIC) was greater than 64 µg/mL.

For `O=C(Nc1nc2cc(F)ccc2o1)NC1CCCCC1` [Compound 180, 1-cyclohexyl-3-(5-fluorobenzo[d]oxazol-2-yl)urea], the MIC was greater than 64 µg/mL.

Turning to `COc1ccc2sc(NC(=O)Nc3ccc(Cl)cc3)nc2c1` [Compound 165, 1-(4-chlorophenyl)-3-(5-methoxybenzo[d]thiazol-2-yl)urea], the MIC is greater than 64 µg/mL.

For the compound `O=C(O)C1CNCCN1C(=O)c1c(-c2cc3cc(Cl)ccc3[nH]2)[nH]c2cc(Br)ccc12` (stereo not drawn) [Compound 225, 1-(6-bromo-5′-chloro-1H,1′H-[2,2′-biindole]-3-carbonyl)piperazine-2-carboxylic Acid], the MIC is greater than 64 µg/mL.

For the compound `CCOC(=O)c1ccc2sc(NC(=O)Nc3ccc(Cl)cc3)nc2c1` [Compound 171, ethyl 2-(3-(4-chlorophenyl)ureido)benzo[d]thiazole-5-carboxylate], the MIC is greater than 64 µg/mL.

Consider `CNC(=O)c1c(/C=C/c2ccc(Cl)cc2)[nH]c2cc(Br)ccc12` [Compound 20, (E)-6-Bromo-2-(4-chlorostyryl)-N-methyl-1H-indole-3-carboxamide], for which the minimal inhibitory concentration (MIC) turned out to be 64 µg/mL (≈ 164 µM).

Turning to `CS(=O)(=O)NC(=O)CNC(=O)c1c(-c2cc3cc(Cl)ccc3[nH]2)[nH]c2cc(Br)ccc12` [Compound 151, 6-bromo-5′-chloro-N-(2-(methylsulfonamido)-2-oxoethyl)-1H,1′H-[2,2′-biindole]-3-carboxamide], the minimal inhibitory concentration (MIC) was greater than 64 µg/mL.

In the case of `O=C(Nc1ccccn1)Nc1nc2cc(Br)ccc2s1` [Compound 163, 1-(5-bromobenzo[d]thiazol-2-yl)-3-(pyridin-2-yl)urea], the MIC was greater than 64 µg/mL.

Turning to `OC(c1c(CCc2cc(Cl)cc(Cl)c2)[nH]c2cc(Br)ccc12)(C(F)(F)F)C(F)(F)F` [Compound 15, 2-(6-Bromo-2-(3,5-dichlorophenethyl)-1H-indol-3-yl)-1,1,1,3,3,3-hexafluoropropan-2-ol], the MIC stood at 1 µg/mL (≈ 1.87 µM).
